Experimental data as given in paper PMC9110316 (Computational and Structural Biotechnology Journal, 2022).
Where two headings read alike, the source gives them in different places. Where a SMILES comes first, the peptide text is derived from it. [ ]: non-standard residue; d: D form. The star is where a group is joined. Nle = CCCC[CH](N)C(=O)O; Cbz = O=C(OCc1ccccc1)*

Experiments:
[1] = MTT cell viability assay in Huh7 cells; format: cell-based; settings: human
SARS-CoV-2 pseudovirus [2] = experiment: microbe, parasite or virus in culture; settings: Severe acute respiratory syndrome-related coronavirus, Huh-7, read-out: EC50, inhibition of SARS-CoV-2 pseudovirus infection
[3] = molecular target: CTSL protein prepared from human liver tissue (Homo sapiens, UniProt P07711); experiment: biochemical; settings: for inhibition at 100 µM: read-out: inhibition against CTSL (inhibition efficiency)
SARS-CoV-2 pseudovirus [4] = experiment: microbe, parasite or virus in culture; settings: Severe acute respiratory syndrome-related coronavirus, A549, read-out: EC50, inhibition of SARS-CoV-2 pseudovirus infection
[5] = MTT cell viability assay in A549 cells; format: cell-based; settings: human
SARS-CoV-2 pseudovirus [6] = system: SARS-CoV-2 pseudovirus

CTSL protein prepared from human liver tissue, sequence (P07711 114-288 limits assumed): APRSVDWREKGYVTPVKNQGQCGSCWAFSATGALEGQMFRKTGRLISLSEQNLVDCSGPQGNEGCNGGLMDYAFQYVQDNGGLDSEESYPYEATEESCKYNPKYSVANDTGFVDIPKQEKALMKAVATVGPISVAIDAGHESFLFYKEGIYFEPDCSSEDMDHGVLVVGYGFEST
CTSL protein prepared from human liver tissue, sequence (P07711 292-333 limits assumed): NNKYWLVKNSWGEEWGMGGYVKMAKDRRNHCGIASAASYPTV

CCCCC(C=O)NC(=O)C(CC(C)C)NC(=O)C(CC(C)C)NC(C)=O (stereo not drawn) [Mg-101] (Ac-Leu-Leu-[Nle]-aldehyde; configuration not given here) showed a CC50 at 24 h [1] of 64.3 µM, an EC50 (SARS-CoV-2 pseudovirus [2]) of 3.12 µM and an IC50 [3] of less than 0.008 µM. The inhibition at 100 µM [3] was greater than 90%, the EC50 (SARS-CoV-2 pseudovirus [4]) was 1.15 µM and the CC50 at 24 h [5] was 355 µM.
In the case of CC(C)C[C@@H](C=O)NC(=O)[C@H](CC(C)C)NC(=O)[C@H](CC(C)C)NC(=O)OCc1ccccc1 [Mg-132] (Cbz-Leu-Leu-Leu-aldehyde), the CC50 at 24 h [1] is reported as 100 µM, the EC50 (SARS-CoV-2 pseudovirus [2]) is reported as 0.212 µM and the inhibition at 100 µM [3] is reported as greater than 90%. The EC50 (SARS-CoV-2 pseudovirus [4]) was 0.159 µM and the CC50 at 24 h [5] was greater than 200 µM.
Work on CC(NC(=O)C(Cc1ccccc1)NC(=O)OCc1ccccc1)C(=O)CF (centres unmarked) [Z-FA-FMK] yielded a CC50 at 24 h [1] of 328 µM, an EC50 (SARS-CoV-2 pseudovirus [2]) of 0.701 µM and an IC50 [3] of 0.0549 µM. For the same molecule, the inhibition at 100 µM [3] was greater than 90%, the EC50 (SARS-CoV-2 pseudovirus [4]) was 1.13 µM and the CC50 at 24 h [5] was greater than 400 µM.
Molecule CC1(C)CCC2=C(O1)c1ccccc1C(=O)C2=O [beta-lapachone] has a CC50 at 24 h [1] of 47.4 µM, an EC50 (SARS-CoV-2 pseudovirus [2]) of 5.09 µM and an IC50 [3] greater than 100 µM. The “SI (selectivity index, ratio of CC50 and EC50)” value (SARS-CoV-2 pseudovirus [6]) was 9.31.
For CCCC[C@@H](C=O)NC(=O)[C@H](CC(C)C)NC(=O)OCc1ccccc1 [calpeptin], the CC50 at 24 h [1] was 116 µM, the EC50 (SARS-CoV-2 pseudovirus [2]) was 29.8 µM and the inhibition at 100 µM [3] was greater than 90%. The EC50 (SARS-CoV-2 pseudovirus [4]) was 34.8 µM and the CC50 at 24 h [5] was 595 µM.
For CCCCCCCCCC(=O)N[C@@H](Cc1c[nH]c2ccccc12)C(=O)N[C@H](CC(N)=O)C(=O)N[C@@H](CC(=O)O)C(=O)N[C@@H]1C(=O)NCC(=O)N[C@@H](CCCN)C(=O)N[C@@H](CC(=O)O)C(=O)N[C@H](C)C(=O)N[C@@H](CC(=O)O)C(=O)NCC(=O)N[C@H](CO)C(=O)N[C@@H]([C@H](C)CC(=O)O)C(=O)N[C@@H](CC(=O)c2ccccc2N)C(=O)O[C@@H]1C [daptomycin], the CC50 at 24 h [1] was 3570 µM, the IC50 [3] was 7.87 µM and the CC50 at 24 h [5] was greater than 5000 µM.
Work on CC(=O)N[C@@H](CC(C)C)C(=O)N[C@@H](CC(C)C)C(=O)N[C@H](C=O)CCCNC(=N)N [leupeptin hemisulfate] yielded a CC50 at 24 h [1] greater than 5000 µM, an EC50 (SARS-CoV-2 pseudovirus [2]) of 39.3 µM and an IC50 [3] of less than 0.008 µM. For the same molecule, the inhibition at 100 µM [3] was greater than 90%, the EC50 (SARS-CoV-2 pseudovirus [4]) was 4.26 µM and the CC50 at 24 h [5] was greater than 5000 µM.
